The values that follow come from ChEMBL document CHEMBL2434925, “Synthesis and antiviral activity of a novel class of (5-oxazolyl)phenyl amines” (Eur J Med Chem, 2013).

The test system of one data set is Huh-7. The experiment in a line: (§1) Selectivity index, ratio of CC50 for human Huh7.5 cells to IC50 for HCV expressing pFL-J6/JFH/JC1. In kind it is functional.
The next data set concerns Hepatitis C virus. As to the kind of experiment: Antiviral activity against HCV expressing pFL-J6/JFH/JC1 infected in human Huh7.5 cells assessed as inhibition of viral RNA synthesis after 96 hrs by one-step RT-PCR analysis. In kind it is functional, organism-based, Hepacivirus hominis. The following applies: Huh-7, 96 h.
Data set [1] can be described thus: Cytotoxicity against human Huh7.5 cells after 96 hrs by MTT assay. It counts as cell-based, Huh-7. (Formazan colour is commonly taken as a measure of viable cells.)
Data set [2] is described as follows: Selectivity index, ratio of CC50 for african green monkey Vero cells to IC50 for Coxsackie B3 virus Nancy. In kind it is functional.
Data set [3] can be described thus: Cytotoxicity against african green monkey Vero cells after 96 hrs by MTT assay. It counts as cell-based. Particulars: chlorocebus sabaeus.
Data set [4] is described as follows: Selectivity index, ratio of CC50 for african green monkey Vero cells to IC50 for Coxsackie B3 virus Schmitt. In kind it is functional.
The subject of a further data set is Coxsackievirus B6. As to the kind of experiment: Antiviral activity against Coxsackie B6 virus Schmitt in african green monkey Vero cells assessed as inhibition virus-induced cytopathic effect after 48 hrs. It counts as functional, organism-based. Particulars: Enterovirus B. A general note: Cytopathic effects are the visible damage that an infection or toxin causes in cultured cells.

Data set [5] in a line: as §1. It counts as functional, Huh-7.
The next data set has as its system Coxsackievirus B3. As to the kind of experiment: Antiviral activity against Coxsackie B3 virus Nancy in african green monkey Vero cells assessed as inhibition virus-induced cytopathic effect after 48 hrs. In kind it is functional, organism-based. The following applies: Enterovirus B.

As usually defined, the IC50 is the concentration at which inhibition is half-maximal. What is called CC50 is the concentration at which the toxic effect on the cells reaches its halfway point.

As for `CCC[C@H](NC(=O)[C@@H]1[C@H]2CCC[C@H]2CN1C(=O)[C@@H](NC(=O)[C@@H](NC(=O)c1cnccn1)C1CCCCC1)C(C)(C)C)C(=O)C(=O)NC1CC1` [TELAPREVIR], the Ratio CC50/IC50 with Huh-7 was greater than 268. For the same compound, the IC50 in the data set with Hepatitis C virus was less than 0.14 µM. Moreover, the midpoint of cytotoxicity in [1], the CC50 at 96 h, lay at 37.5 µM.
For the compound `COc1cc(/N=C/c2ccncc2)ccc1-c1cnco1`, the “Ratio CC50/IC50” value is 6.8 in data set [2], 15.6 in data set [4] and greater than 62.1 in data set [5]. Besides, the half-maximal cytotoxic concentration (CC50) at 96 h was 239 µM in [3] and greater than 100 µM in [1]. In addition, the IC50 in the data set with Coxsackievirus B6 stood at 15.3 µM; in the data set with Hepatitis C virus, 1.61 µM; in the data set with Coxsackievirus B3, 34.9 µM.
Take `COc1cc(NCc2ccc(Cl)s2)ccc1-c1cnco1`: the “Ratio CC50/IC50” value amounted to 39.3 in [2], 64 in [4] and 130.8 in [5]. The cytotoxic concentration (CC50) at 96 h was 53.8 µM in data set [3] and 43.2 µM in data set [1]. The IC50 in the data set on Coxsackievirus B6 stood at 0.84 µM; with Hepatitis C virus, 0.33 µM; in the data set with Coxsackievirus B3, 1.37 µM.
`COc1ccccc1/C=C/CNc1ccc(-c2cnco2)c(OC)c1`: the “Ratio CC50/IC50” value in data set [2] stood at 4; in data set [4] it was 1.7; in data set [5] it was 12.7. Further, the CC50 at 96 h in data set [3] stood at 12.7 µM; in [1] it was 29.2 µM. The IC50 with Coxsackievirus B6 was determined as 7.34 µM; in the data set with Hepatitis C virus it was 2.3 µM; in the data set on Coxsackievirus B3 it was 3.15 µM.
On to `COc1cc(NC/C=C/c2ccccc2)ccc1-c1cnco1`, for which the “Ratio CC50/IC50” value in data set [2] is 20.6; in data set [4], 15.5; in data set [5], greater than 42. The CC50 at 96 h in [3] was 72.5 µM; in data set [1] it was greater than 100 µM. In addition, the IC50 in the data set with Coxsackievirus B6 turned out to be 4.67 µM; with Hepatitis C virus, 2.38 µM; in the data set with Coxsackievirus B3 it was 3.52 µM.
For the compound `COc1cc(NCc2ccc(-c3ccccc3)s2)ccc1-c1cnco1`, the “Ratio CC50/IC50” value came out at 3 in data set [2], 9.1 in data set [4] and 28.3 in data set [5]. Moreover, the CC50 at 96 h in [3] was 6.82 µM; in data set [1], 26 µM. Moreover, the IC50 in the data set with Coxsackievirus B6 was found to be 0.75 µM; in the data set with Hepatitis C virus it was 0.92 µM; in the data set on Coxsackievirus B3, 2.26 µM.
Take `COc1ccc(-c2cnco2)cc1NCc1ccc(C)s1`: the “Ratio CC50/IC50” value in data set [2] is given as 5.2; in data set [4], 3.4; in data set [5] it was 21.9. Moreover, the CC50 at 96 h stood at 42.7 µM in data set [3] and 52.9 µM in data set [1]. Further, the results for the IC50 in the data set on Coxsackievirus B6, in the data set on Hepatitis C virus and in the data set with Coxsackievirus B3 were 12.8 µM, 2.42 µM and 8.22 µM, respectively.
